From patent publication US20050261194A1, “Use of thymulin-like peptides for making pain-relieving medicines” (priority 2001, published 2005) come the findings set out here.

Holding throughout (format): in vivo, rat
One test concerns TNF-α. Description: TNF-α in hind paw skin after intraplantar ET (ELISA). The protocol: (§1) These experiments required tissue sampling. The animals were sacrificed by anesthesia (sodium penthiobarbital, 50 mg/kg) and the skin of the hind paws is sampled either at 1 h (for the determination of the TNFα) or at 4 h (for the determination of IL-1β, IL-6 and NGF) after the endotoxin injection.
(§2) These tissue samples are weighed and then quick frozen and stored at −70° C. with a view of proceeding with the evaluation of IL-1β, TNFα, IL-6 and NGF.
(§3) In another series of experiments, the tissues are taken as described above using different groups of rats; the one group being pretreated with TAP 30 minutes before injection of ET and the other group having been injected with TAP only.
(§4) The tissues are homogenized in a phosphate buffer solution (PBS, pH=7.4), containing 0.4 M of NaCl, 0.05% of Tween-20®, 0.5% bovine serum albumin (BSA), 0.1 mM of phenylmethylsulfonyl fluoride, 0.1 mM of benzethonium chloride, 10 mM of EDTA and 20 KI/mL of aprotinin.
(§5) The mixture is then centrifuged at 1,200 g for 60 minutes at 4° C. The cytokines and the NFG contained in the supernatant were measured using ELIZA assays. […]
Background: ELISA stands for enzyme-linked immunosorbent assay.

The next test has as its system IL-6. In words: IL-6 in hind paw skin after intraplantar ET (ELISA). As to the method: as §1, §2, §3, §4, §5
The next test has as its system NGF. In words: NGF in hind paw skin after intraplantar ET (immunological kit). As to the method:
as §1, §2, §3, §4
The mixture is then centrifuged at 1,200 g for 60 minutes at 4° C. The cytokines and the NFG contained in the supernatant were measured using ELIZA assays.
The NGF is measure with the aid of an immunological kit (Promega) by following the recommended instructions of the manufacturer. […]

Test [1] deals with rats. Description: Hyperalgesia induced by intraplantar injection of capsaicin; PP, HP, PI tests. As to the method: Injection of capsaicin (10 μg in 50 μl of a 10% solution of Tween 20 in olive oil) produced hyperalgesia, whose peak was at three to six hours after injection and which disappeared at the end of 24 hours. Mechanical hyperalgesia was evaluated using the paw pressure test (PP), which consists in applying a constant pressure of 0.2 kg/cm on the dorsal part of the hind paw. The time lapsed between the application of the pressure and the nociceptive reflex of retraction of the paw was considered as the latency time (or threshold) of mechanical nociceptive. Thermal hyperalgesia was evaluated using the hot-plate (HP) test and the paw immersion (PI) test.
The HP and PI tests were done as in Example 1, the hot-plate having a temperature 52.5±0.3° C. and the hot water container at 48±0.3° C.
The PP and PI tests were done one after the other on the two hind paws observing an interval of five minutes between two consecutive tests.
The rats were sent to the laboratory one week prior to injection so that they would become accustomed to the environment and the tests were done on the rats over two or three days in order to obtain the baseline value for each test before any treatment (detailed description in Kanaan S. A. et al., 1996, Endotoxin-induced local inflammation and hyperalgesia in rats and mice: a new model for inflammatory pain, Pain, 66:373-379).
In the course of the experiments involving the injection […]. of capsaicin, the mean of the measurements done using each pain test (PP, HP or PI) was calculated for each group of rats prior to the injection of the capsaicin (baseline condition) and at different time intervals after injection (3, 6, 9 and 24 hours). TAP was injected (i.p.) thirty minutes before the capsaicin and the latency times of the different pain tests were measured at the same intervals of time after injection of the capsaicin.

The subject of test [2] is rats. In words: Visceral pain induced by intraperitoneal injection of capsaicin; 4-level behavioral scale. The protocol:
This test consisted of injecting (i.p.) 20 μg of capsaicin in 100 μl of a 10% solution Tween 20 in olive oil in some rats and observing the behavior induced by these injections. A 4-level behavioral scale was designed according to the method described by Giesler G J et al., (1976, Inhibition of visceral pain by electrical stimulation of the periaqueductal gray matter, Pain 2:43-48).
The levels were defined as follows: 0=normal behavior; 1=slight contraction of the abdominal muscles; 2=contraction of one single side and luxation of the haunch dropping; 3=significant contraction of the abdominal muscles and extension of the two rear paws.
For the evaluation of the animals' behavior, each rat was placed in transparent cage placed over a mirror inclined at 45° for optimum observation.
[…] None of the two observers knew the injection administered nor the expected effects.
For the injection i.p. of the capsaicin, the total time corresponding to each behavioral level was measured for the animals having received the capsaicin alone or the capsaicin after the TAP. The variation of the neuropathic manifestations or of the pain tests after the treatments were evaluated by ANOVA then by Bonfrerroni tests done post hoc. The variations of the pain scores with or without treatment were evaluated by the Student bilateral test by assuming a significance level of 5% (p<0.05).

Setting [3] is: TAP 25 μg in control animals, no ET.

“Glu-Ala-lys-Ser-Gln-Gly-Gly-Ser-Asp (SQGGSD; N-terminal Glu-Ala-Lys; printed: Ser-Gln-Gly-Gly-Ser-Asp) [TAP]”: the “change of TNF-α concentration, TAP alone” value in the test on TNF-α (setting [3]) was “did not induce significant change”. Moreover, in the test on TNF-α (TAP pretreatment 30 min before ET, paw, one hour after ET, ET alone 345.0±61.0, saline 100.0±8.00 pg/paw), the “effect on ET-induced increase of TNF-α concentration” value was “nullified the increase of the TNF-α concentration”. The “change of IL-6 concentration, TAP alone” value in the test on IL-6 (setting [3]) is recorded as “did not induce significant change”. Besides, the IL-6 concentration with IL-6 (TAP pretreatment before intraplantar ET, ET alone 2831±285, saline 250.0±50.0, p<0.001) worked out at 1158±197.0 pg/paw. Further, the “change of NGF concentration, TAP alone” value with NGF (setting [3]) is “did not induce significant change”. Further, in the test with NGF (TAP pretreatment before intraplantar ET, ET alone 23.0±1.73, saline 9.11±1.6, p<0.001), the NGF concentration came to 16.73±2.70 ng/paw. In addition, the “modification of latency times in the pain tests, TAP alone” value in the test on rats [1] (TAP 25 μg, no capsaicin, FIG. 8 controls) is listed as “did not result in significant modification”. Further, the “effect on capsaicin-induced hyperalgesia at the more elevated dose” value with rats [1] (TAP highest dose i.p. before capsaicin 10 μg i.pl.) is recorded as “complete prevention”. Moreover, the “effect on hyperalgesia induced by intraplantar capsaicin” value in the test with rats [1] (TAP i.p. 1.5 or 25 μg/rat thirty minutes before capsaicin 10 μg, FIG. 8) is on record as “dose-dependent attenuation”. The “effect on nociception scores induced by capsaicin” value with rats [2] (TAP 50 μg before capsaicin 20 μg i.p., FIG. 9) is “significant shift to the left”. Also, the “time at behavioral level 0” value with rats [2] (TAP 50 μg in 200 μl/rat before capsaicin 20 μg i.p., capsaicin alone 0.2±0.3, 36 minutes observation) came out at 0.82 ± 0.18 min. Besides, the “time at behavioral level 1” value in the test on rats [2] (TAP 50 μg in 200 μl/rat before capsaicin 20 μg i.p., capsaicin alone 2.51±0.45, 36 minutes observation) stood at 12.89 ± 2.5 min. For the same substance, the “time at behavioral level 3” value with rats [2] (TAP 50 μg in 200 μl/rat before capsaicin 20 μg i.p., capsaicin alone 11.84±0.43, 36 minutes observation) worked out at 6.67 ± 0.09 min. Besides, the “time at behavioral level 2” value with rats [2] (TAP 50 μg in 200 μl/rat before capsaicin 20 μg i.p., capsaicin alone 21.5±0.8, 36 minutes observation) is 15.62 ± 0.9 min.
